The values that follow come from patent publication US11378572B2, “Therapeutic agent for immune cell migration-caused disease and method for screening same” (ZYMEDI CO., LTD., priority 2017, dated 2022).

Data set [1] relates to pulmonary arterial hypertension (PAH) model. The experiment in a line: Monocrotaline pulmonary arterial hypertension (PAH) model, BC-KI-00053. It is filed as in vivo, SD rats. As for the experimental part: In order to induce PAH in 6-week-old female SD rats (Oriental Bio), 60 mg/kg of MCT (monocrotaline), a substance that causes pulmonary hypertension through pulmonary arterial injury, was injected subcutaneously. Then animals were divided into four groups (5 animals per group), and orally administered with vehicle, sildenafil (25 mg/kg, once daily) or BC-KI-00053 (25 or 50 mg/kg, dissolved in vehicle, once daily) for 3 weeks. Vehicle was corn oil:polyethylene glycol 400:Tween 80:methyl cellulose (1%)=20:30:1:49.
Three weeks later, rats were anesthetized with isoflurane, and blood flow and pressure were measured using an MPVS cardiovascular pressure and volume system (model name: MPVS Ultra, manufactured by Millar Instruments). Right ventricular systolic pressure (RVESP) and diastolic pressure, left ventricular systolic pressure and diastolic pressure were measured using a dedicated catheter (Mikro-Tip rat pressure catheter, manufactured by Millar Instruments). Cardiac output was measured using a perivascular blood flow probe (Transonic® Flowprobes, manufactured by […]), and experimental techniques were performed in the same manner as described in the literature: Pacher P, Nagayama T, Mukhopadhyay P, Batkai S, Kass D A. Measurement of cardiac function using pressure-volume conductance catheter technique in mice and rats. Nat Protoc 2008, 3(9):1422-34.
IHC staining for CD68, a monocyte/macrophage marker, was performed using lung tissues from each experimental group. Collected lungs were fixed in PFA (paraformaldehyde) according to the conventional procedure, and then embedded in paraffin through water washing, dehydration, and tissue clearing processes. Lung tissue paraffin blocks of rats were cut to a thickness of […] and slides were prepared. Thereafter, staining was performed as follows. First, three times for 5 minutes xylene treatment, 2 minutes in 100% ethanol twice, 95% ethanol, 90% ethanol, 70% ethanol, DW treatment for 2 minutes in this order and washed with PBS for 5 minutes (2 times). After treatment with 0.3% H2O2 (10 minutes), slides were washed twice with PBS for 5 minutes. Then slides were soaked in 0.01M citrate buffer of pH 6.0 and microwaved for 3 minutes and 30 seconds, then antigen retrieval of cooling for 10 seconds and reheating for 10 seconds was repeated for 10 minutes followed by 20 minutes of cooling at room temperature. Afterwards, slides were washed three times for 5 minutes with PBS-T (0.03% Triton-X). After 30 minutes blocking (2% BSA & 2% goat serum in PBS) at 4° C. anti-CD68 antibody (1:200, Abcam, ab31630) was treated overnight at 4° C. After washing three times with PBS-T for 5 minutes, slides were treated with polymer-HRP anti-mouse envision kit (DAKO) for 1 hour at 4° C. After washing 3 times with PBS-T for 5 minutes, 1 ml of DAB substrate buffer and 20 ul of DAB chromogen were mixed and treated with tissue. After 10 minutes when colors developed, slides were washed twice with tertiary distilled water. Stained tissues were treated with Mayer's hematoxylin (Sigma) for 1 minute, and then treated in the order of 70% ethanol, 90% ethanol, 95% ethanol, and 100% ethanol, twice for 2 minutes for each solution. Finally, after three times of xylene treatment for 5 minutes, cover slides were mounted using a mounting solution, and observed with an optical microscope.

Data set [2] has as its system CCl4 liver fibrosis animal. The experiment in a line: CCl4 (carbon tetrachloride)-induced liver fibrosis animal model. In kind it is in vivo, Actin-DsRed mice. As for the experimental part: Hepatocytes appear red in Actin-DsRed mice (Stock no. #006051, Jackson Laboratory (Bar Harbor, USA)). In order to induce liver fibrosis in this mouse, CCl4 (carbon tetrachloride) was dissolved in corn oil and injected intraperitoneally twice a week at a concentration of 20% for a total of 6 weeks. Three weeks after start of CCl4 administration, vehicle and BC-KI-00053 (100 mg/kg) were administered orally, daily for three weeks. For vehicle, corn oil:polyethylene glycol 400:Tween 80:methyl cellulose (1%)=20:30:1:49 was used.
The degree of fibrosis on the surface and inside (area with a depth of 30-50 μm) of liver was detected by the Second Harmonic Generation (SHG) technique of intravial imaging (Excitation: 780 nm, Detection: 390 nm).

For data set [3], the system named is 129Sv/J Alport mice (COL4A3 knockout mouse). The experiment in a line: Animal model of Alport syndrome. In kind it is in vivo, 129Sv/J mice. Conditions: 100 mg/kg oral once a day, 4 weeks. As for the experimental part:
The experiment was conducted using 129Sv/J mice (Boys town hospital). Animals groups were (i) 129Sv/J wild-type mice with vehicle administration (0.5% methyl cellulose suspension), (ii) 129Sv/J Alport mice (COL4A3 knockout mouse, Cosgrove D et al., Genes Dev. 1996 Dec. 1, 10(23):2981-92) with vehicle administration (0.5% methyl cellulose suspension) (iii) 129Sv/J Alport mice with BC-KI-00053 administration. Each animal group consists of two mice. BC-KI-00053 was dissolved in 0.5% methyl cellulose suspension and orally administered at a concentration of 100 mg/kg, and kidney fibrosis and the immune cell infiltration were evaluated. Each animal group was treated with a control substance or a test agent once a day from 3 weeks of age for a total of 4 weeks. After 4 weeks of treatment, kidney paraffin sections were stained with collagen I (a marker of fibrosis) and CD45 to observe the extent of leukocyte infiltration. Evaluation of fibrosis and infiltration was performed in the same manner as in the above examples.

Where [4] appears, read: 25 or 50 mg/kg oral once daily 3 weeks.
[5] abbreviates: CCl4 6 weeks, BC-KI-00053 100 mg/kg oral daily for 3 weeks.
The mark [6] stands for this setting: normal animal (corn oil) + BC-KI-00053 100 mg/kg oral daily 3 weeks.

On to `COc1ccc(CCN(Cc2ccc(C(=O)O)cc2)c2nc3cccc(F)c3s2)cc1` [BC-KI-00053, 4-({(7-fluorobenzo[d]thiazol-2-yl)[2-(4-methoxyphenyl)ethyl]amino}methyl)benzoic acid], for which the “left ventricular end systolic pressure (LVESP)” value in data set [1] (50 mg/kg, not statistically significant) is given as “increased”. For the same compound, in data set [1] (setting [4]), the “left ventricular end systolic pressure (LVESP)” value is reported as “no decrease” and the “lung tissue infiltration of monocytes/macrophages (CD68 IHC)” value was “clearly reduced”. Further, in data set [1] (25 or 50 mg/kg oral once daily 3 weeks, concentration dependent), the “RVESP (right ventricular systolic pressure)” value was “significantly reduced”. For the same compound, in data set [1] (CD68 IHC), the “reduction of lung monocyte/macrophage infiltration compared with sildenafil” value is “noticeably superior to sildenafil”. In data set [1] (rat, in vivo), the “tendency to affect systemic artery pressure compared with sildenafil” value is recorded as “lower tendency”. In data set [2] (setting [5]), the “fibrosis in the surface and inside the liver (SHG imaging)” value is given as “greatly reduced”; the hepatocyte necrosis result is “noticeably reduced”. For the same compound, in data set [2] (setting [6]), the “other symptoms in the liver” value was “no other symptoms” and the weight loss result is “no weight loss”. Moreover, the in vivo tolerability result in data set [2] (normal animal + BC-KI-00053 100 mg/kg) is recorded as “innocuous”. In data set [3], the “fibrosis in the kidneys (collagen I)” value is “reduced down to the normal level” and the “leukocyte infiltration in the kidneys (CD45)” value is given as “reduced down to the normal level”.
